# Columns and labels:
# Aspergillus niger = test: FISP disc diffusion assay; assay type: cell-based; set-up: key to zone quality qualifier: F: clear zone, fuzzy edges; S: slightly hazy zone (some growth observed throughout zone); H: hazy zone (considerable growth observed throughout zone); V: very hazy zone (zone of inhibition is barely discernable); R: zone displays a ring of resistant growth; no qualifier: clear zone throughout, sharp edges; conditions: 250 μg/ml in CH2Cl2
# Excerpt: (§1) The FISP assay employs disc diffusion susceptibility testing methods to generate a spectrum of activity against a panel of representative yeasts, filamentous fungi and bacteria.
# The filamentous fungi used in the assay were Penicillium sp. Aspergillus niger, Trichoderma sp., Phoma sp., Trichoderma lignorum, Fusarium oxysporum, Ustilago maydis, Ceratocystis ulmi, Alternaria soloni, Verticillium serrae, Botrytis allii, Scopulariopsis communis, Cephalosporium sp., Cercospora beticola, Rhizomucor miehei, Aspergillus flavus and Aspergillus fumigatus.
# (§2) For carrying out the assay, seeded assay plates are prepared in the following manner according to the type of assay strain.
# Inocula for filamentous fungi are prepared by scraping the surface of stock plates maintained on potato dextrose agar with a moistened sterile dacron swab. The spores and mycelia are then suspended in 10 milliliters of sterile potato dextrose broth and adjusted to 65 percent transmission at 660 nm. […]
# Following incubation, the inhibition zones are measured and recorded. […]
# FISP data is reported as the diameter (in mm.) of the zone of inhibition of growth in agar diffusion assays. The zone is determined by measuring growth that differs from the background lawn. […]
# Candida albicans = test: FISP disc diffusion assay; assay type: cell-based; set-up: key to zone quality qualifier: F: clear zone, fuzzy edges; S: slightly hazy zone (some growth observed throughout zone); H: hazy zone (considerable growth observed throughout zone); V: very hazy zone (zone of inhibition is barely discernable); R: zone displays a ring of resistant growth; no qualifier: clear zone throughout, sharp edges; conditions: 250 μg/ml in CH2Cl2
# Excerpt: as §1
# (§3) The yeasts employed in the assay are Saccharomyces cerevisiae, Candida albicans, Candida tropicalis, Candida rugosa, Brettanomyces bruxellensis, Torulospora hansenii, Candida guilliermondi, Candida pseudotropicalis, Torulopsis glabrata, Cryptococcus albidus, Cryptococcus laurentii and Kluyveromyces fragilis.
# as §2
# (§4) Inocula for yeasts and bacterial strains are prepared from overnight broth cultures then diluted into potato dextrose agar to a final concentration of either 40 percent or 70 percent transmission at 660 nm.
# (§5) For three strains of Candida albicans and one strain of Saccharomyces cerevisiae, sterile saline is employed in place of potato dextrose broth.
# (§6) Assay plates for the yeasts and filamentous fungi are prepared by diluting the inoculum into appropriate molten agar medium, cooled to 45° C. to obtain a final concentration of 4 percent.
# (§7) The seeded agar media thus prepared are dispensed into petri dishes for assays (11 ml per dish).
# (§8) The samples to be tested for production of antifungal agent are applied to 6.2 mm filter paper discs (25 μl/disc) and air dried at 24° C. When the sample to be tested is crude broth, it may be centrifuged prior to application. The discs bearing the material to be tested are then applied employing sterile conditions to the seeded assay plates. The assay plates are then incubated at either 28° C. or 37° C. for 24 hours. In one of the assays for Bacillus subtilis, the sample is applied to a disc previously impregnated with 4M potassium chloride at 25 μl/disc and then air dried.
# (§9) Following incubation, the inhibition zones are measured and recorded. The measurements are made from the extreme edge where growth differs from the background zone. The zones are noted as to appearance as fuzzy edge and clear center, hazy throughout, slightly hazy, very hazy or ringed.
# (§10) FISP data is reported as the diameter (in mm.) of the zone of inhibition of growth in agar diffusion assays. The zone is determined by measuring growth that differs from the background lawn. A qualifier is also added to describe the zone quality as listed below: no qualifier: clear zone throughout, sharp edges
# Saccharomyces cerevisiae = test: FISP disc diffusion assay; assay type: cell-based; set-up: key to zone quality qualifier: F: clear zone, fuzzy edges; S: slightly hazy zone (some growth observed throughout zone); H: hazy zone (considerable growth observed throughout zone); V: very hazy zone (zone of inhibition is barely discernable); R: zone displays a ring of resistant growth; no qualifier: clear zone throughout, sharp edges; conditions: 250 μg/ml in CH2Cl2
# Excerpt: as §1, §3, §2, §4, §5, §6, §7, §8, §9, §10
# Light stability = assay type: physicochemical
compound,measurement,setting,value
CC(/C=C/C=C(\C)C(O)C(C)C(=O)O[C@H]1C[C@H](C)C=C2C=C[C@@]3(C)O[C@@H](O)CC(=O)[C@]3(C)[C@H]21)=C\C=C\C(=O)O (stereo partly drawn) [Compound A],zone quality qualifier,Aspergillus niger,H
same,zone of inhibition at 250 µg/mL,"Aspergillus niger; Aspergillus niger, read-out: diameter of the zone of inhibition of growth",0 mm
same,zone quality qualifier,Candida albicans,S
same,zone quality qualifier,Candida albicans; YNB,V
same,zone quality qualifier,Candida albicans; YNB/GLU,H
same,zone quality qualifier,Candida albicans; YNB/NAG,H
same,zone of inhibition at 250 µg/mL,"Candida albicans; Candida albicans, read-out: diameter of the zone of inhibition of growth",0 mm
same,zone quality qualifier,Saccharomyces cerevisiae,H
same,zone quality qualifier,Saccharomyces cerevisiae; YNB,H
same,zone of inhibition at 250 µg/mL,"Saccharomyces cerevisiae; Saccharomyces cerevisiae, read-out: diameter of the zone of inhibition of growth",0 mm
same,stability,Light stability; isolated and worked with in the absence of light,stable when isolated and worked with in the absence of light
same,light sensitivity,Light stability; light,light sensitive
